Laboratory results as given in patent US20250049754A1, “COMPOSITIONS COMPRISING UROLITHIN FOR TREATING MUSCLE DECLINE AND A KIDNEY DYSFUNCTION” (SOCIETE DES PRODUITS NESTLE S.A., priority 2021, published 2025).

Key:
Assay type in all cases: in vivo
db/db mouse [1] = test: Kidney function in the db/db mouse model of type 2 diabetes: urine albumin (ELISA), urinary creatinine (Cobas Integra), 24-hour metabolic caging; conditions: db/db mice, 50 mg/kg/day oral gavage; for albumin/creatinine ratio: vs db/db+V group
Procedure: Creatinine was determined using a Cobas Integra autoanalyzer. Excretion of urine albumin was measured by ELISA kit.
Urinary creatinine was determined using a Cobas Integra autoanalyzer.
Excretion of urine albumin was measured by ELISA kit.
The renoprotective effects of Urolithin A were assessed in a mouse model of type 2 diabetes (the db/db mouse).
A mouse model of diabetes was used endorsed by the Diabetic Complications Consortium (DiabComp/AMDCC), the db/db mouse model, which is obese and insulin resistant “type 2”.
Mice were purchased from The Jackson Laboratory (Stock No: 000642) in order to obtain sizeable cohorts to run groups in tandem, which is crucial for reliable testing of mitochondrial function. Eight to nine week-old male db/db mice (n=15 per group) received Urolithin A by oral gavage (50 mg/kg/day) for a duration of 10 weeks. Db/m (control) or db/db (diabetic) mice were randomized to the following treatments:
A suspension of 0.5% carboxymethylcellulose (CMC; Sigma #419303) was first prepared. Urolithin A (16.67 mg/ml) was prepared by dissolving in 0.5% CMC solution and left stirring at room temperature. Urolithin A was dosed at 50 mg/kg/day. The weights of the mice were used to calculate the dosage of Urolithin A to be administered to each mouse, based on weekly bodyweight measurements. Approximately 1001 of 0.5% CMC was given to mice daily in the vehicle groups.
At baseline, mid-point and one week prior to euthanasia, mice underwent metabolic caging for 24 hours to collect urine and to measure food and water intake. Body composition by EchoMRI was performed at baseline, mid-point and two weeks prior to euthanasia to determine fat mass and lean body mass. At baseline and week 9, an oral glucose tolerance test was performed to assess glucose handling. Fasting plasma glucose was measured using a glucose colorimetric assay kit (Cayman, Ann Arbor, USA) at baseline, 15 min and 60 min after glucose treatment. Blood pressure measurements were performed at week 10.
All analyses were performed by ANOVA followed by post hoc paired analysis using Tukey's least significant difference method, correcting for multiple comparisons. A value for p<0.05 was considered as statistically significant. A Z-score of 2 was used to exclude outliers.
One week prior to cull, 24-hour metabolic caging was performed to collect urine, and blood was collected from the submandibular vein. Urine and plasma creatinine was determined using the Cobas Integra autoanalyzer. Urine albumin was measured by ELISA (Bethyl, USA). Blood pressure was determined by tail cuff plethysmography.
Excretion of albumin in the urine over a 24-hour period was measured by ELISA kit (Bethyl). At the endpoint of the study, there was a significant increase in albuminuria in db/db mice when compared to db/m mice. […] Creatinine clearance was calculated from urine and plasma creatinine measured using the Creatinine plus ver.2 (CREP2) assay on a Cobas Integra 400 plus autoanalyzer (Roche Diagnostics). There was a decline in kidney function in db/db mice (Diabetic) as measured by an increase in albuminuria and reduced creatinine clearance at 18-19 weeks of age. Treatment of UA delayed the progression of albuminuria in the db/db mice.

db/db mouse [2] = test: Whole body composition (lean mass) by EchoMRI in db/db mice; conditions: 50 mg/kg/day oral gavage, 10 weeks, vs db/db+V group
Procedure: The lean mass of muscles was measured using EchoMRI. Mice were purchased from The Jackson Laboratory (Stock No: 000642) in order to obtain sizeable cohorts to run groups in tandem, which is crucial for reliable testing of mitochondrial function. Eight to nine week-old male db/db mice (n=15 per group) received Urolithin A by oral gavage (50 mg/kg/day) for a duration of 10 weeks. Db/m (control) or db/db (diabetic) mice were randomized to the following treatments: A suspension of 0.5% carboxymethylcellulose (CMC; Sigma #419303) was first prepared. Urolithin A (16.67 mg/ml) was prepared by dissolving in 0.5% CMC solution and left stirring at room temperature. Urolithin A was dosed at 50 mg/kg/day. The weights of the mice were used to calculate the dosage of Urolithin A to be administered to each mouse, based on weekly bodyweight measurements. Approximately 1001 of 0.5% CMC was given to mice daily in the vehicle groups. At baseline, mid-point and one week prior to euthanasia, mice underwent metabolic caging for 24 hours to collect urine and to measure food and water intake. […] Fasting plasma glucose was measured using a glucose colorimetric assay kit (Cayman, Ann Arbor, USA) at baseline, 15 min and 60 min after glucose treatment. […] Whole body composition including lean mass and fat mass were measured using EchoMRI at baseline, midpoint and endpoint.

db/db mouse [3] = test: Muscle mass of tibialis anterior and quadriceps by weighing in db/db mice; conditions: 50 mg/kg/day oral gavage, 10 weeks, vs db/db+V group
Procedure: The muscle mass of the tibialis anterior was measured by weighing on a precision scale. […] The muscle mass of the quadriceps was measured by weighing on a precision scale. Mice were purchased from The Jackson Laboratory (Stock No: 000642) in order to obtain sizeable cohorts to run groups in tandem, which is crucial for reliable testing of mitochondrial function. Eight to nine week-old male db/db mice (n=15 per group) received Urolithin A by oral gavage (50 mg/kg/day) for a duration of 10 weeks. Db/m (control) or db/db (diabetic) mice were randomized to the following treatments: A suspension of 0.5% carboxymethylcellulose (CMC; Sigma #419303) was first prepared. Urolithin A (16.67 mg/ml) was prepared by dissolving in 0.5% CMC solution and left stirring at room temperature. Urolithin A was dosed at 50 mg/kg/day. The weights of the mice were used to calculate the dosage of Urolithin A to be administered to each mouse, based on weekly bodyweight measurements. Approximately 1001 of 0.5% CMC was given to mice daily in the vehicle groups. All analyses were performed by ANOVA followed by post hoc paired analysis using Tukey's least significant difference method, correcting for multiple comparisons. A value for p<0.05 was considered as statistically significant. […] Whole body composition including lean mass and fat mass were measured using EchoMRI at baseline, midpoint and endpoint. […]

db/db mouse [4] = test: Urinary carnosine, anserine and S-adenosylmethionine, semi-quantitative, HILIC chromatography and ESI-orbitrap mass spectrometry, in db/db mice; conditions: 50 mg/kg/day oral gavage, 10 weeks, vs db/db+V group
Procedure: Urinary carnosine was determined in a semi-quantitative manner using cold methanol:water:chloroform (5:3:5 (v/v)) extraction to separate the polar metabolites and apolar metabolites. In addition, a protein layer remained in the middle between the two phases. The polar phase was dried overnight in a vacuum centrifuge at 4° C. and 5 mbar, and was dissolved in 60 μl 60% (v/v) acetonitrile:water prior to analysis. The protein layer was quantified with a bicinchoninic acid (BCA) assay (ThermoFisher Scientific) and used for later normalization of the metabolite concentrations. Two microliters of each sample were injected into a hydrophilic interaction chromatography (HILIC) analytical column. The separation was achieved by applying a linear solvent gradient. As mobile phase, solvent A was H2O with 10 mM ammonium acetate (NH4Ac) and 0.04% (v/v) ammonium hydroxide (NH4OH), pH ˜9.3, and solvent B was acetonitrile (ACN). The eluting metabolites, including carnosine, were analyzed with an orbitrap mass spectrometer (Orbitrap Fusion Lumos Tribrid, Thermo Scientific) equipped with a heated electrospray ionisation (H-ESI) source. […]
Urinary anserine was determined in a semi-quantitative manner using cold methanol:water:chloroform (5:3:5 (v/v)) extraction to separate the polar metabolites and apolar metabolites. […] The protein layer was quantified with a bicinchoninic acid (BCA) assay (ThermoFisher Scientific) and used for later normalization of the metabolite concentrations. […] The eluting metabolites, including anserine, were analyzed with an orbitrap mass spectrometer (Orbitrap Fusion Lumos Tribrid, Thermo Scientific) equipped with a heated electrospray ionization (H-ESI) source. […]
Urinary S-adenosylmethionine was determined in a semi-quantitative manner using cold methanol:water:chloroform (5:3:5 (v/v)) extraction to separate the polar metabolites and apolar metabolites. […] The protein layer was quantified with a bicinchoninic acid (BCA) assay (ThermoFisher Scientific) and used for later normalization of the metabolite concentrations. […]

db/db mouse [5] = test: Femur bone mass by weighing in db/db mice; conditions: 50 mg/kg/day oral gavage, 10 week treatment, vs db/db+V group
Procedure: The bone femur mass was determined by weighing on a precision scale. Mice were purchased from The Jackson Laboratory (Stock No: 000642) in order to obtain sizeable cohorts to run groups in tandem, which is crucial for reliable testing of mitochondrial function. Eight to nine week-old male db/db mice (n=15 per group) received Urolithin A by oral gavage (50 mg/kg/day) for a duration of 10 weeks. Db/m (control) or db/db (diabetic) mice were randomized to the following treatments: A suspension of 0.5% carboxymethylcellulose (CMC; Sigma #419303) was first prepared. Urolithin A (16.67 mg/ml) was prepared by dissolving in 0.5% CMC solution and left stirring at room temperature. Urolithin A was dosed at 50 mg/kg/day. The weights of the mice were used to calculate the dosage of Urolithin A to be administered to each mouse, based on weekly bodyweight measurements. Approximately 1001 of 0.5% CMC was given to mice daily in the vehicle groups. All analyses were performed by ANOVA followed by post hoc paired analysis using Tukey's least significant difference method, correcting for multiple comparisons. A value for p<0.05 was considered as statistically significant. A Z-score of 2 was used to exclude outliers. Left and right femur bones were collected at the end of study, after 10 week treatment, and both femurs were cleaned and snap frozen, weighed and stored at −80° C.

**Q.** How did the urinary creatinine (db/db mouse [1]; 10 weeks, vs vehicle-treated group) turn out when O=c1oc2cc(O)ccc2c2ccc(O)cc12 [UA, 3,8-dihydroxyurolithin] was run?
**A.** Its urinary creatinine is “higher”.

**Q.** And the albumin/creatinine ratio (db/db mouse [1]; after 5 weeks of treatment (midpoint))?
**A.** The albumin/creatinine ratio was “significantly decreased”.

**Q.** What about the albumin/creatinine ratio (db/db mouse [1]; after 10 weeks of treatment (endpoint)) of the same molecule?
**A.** Its albumin/creatinine ratio is “significantly decreased”.

**Q.** What about the “albuminuria (24-hour urine albumin excretion)” value (db/db mouse [1]; at midpoint (5 weeks)) of the same molecule?
**A.** Its value is “did affect albuminuria”.

**Q.** And the progression of albuminuria (db/db mouse [1]; baseline to 10 weeks, vs vehicle-treated counterparts)?
**A.** Its progression of albuminuria is “significantly delayed”.

**Q.** And the lean mass (db/db mouse [2])?
**A.** Its lean mass is “significantly increased”.

**Q.** And the “muscle mass of the quadriceps” value (db/db mouse [3])?
**A.** Its value is “significantly increased”.

**Q.** And the “muscle mass of the tibialis anterior” value (db/db mouse [3])?
**A.** The value was “significantly increased”.

**Q.** What about the “levels of urinary S-adenosylmethionine (SAM)” value (db/db mouse [4]) of the same molecule?
**A.** Its value is “significantly increased”.

**Q.** What about the “levels of urinary anserine” value (db/db mouse [4]) of the same molecule?
**A.** Its value is “significantly increased”.

**Q.** What about the “levels of urinary carnosine” value (db/db mouse [4]) of the same molecule?
**A.** The value was “significantly increased”.

**Q.** What about the femur bone mass (db/db mouse [5]) of the same molecule?
**A.** The femur bone mass was “significantly increased”.
